From patent US6605424B1, “Method of detecting inhibitors of agonist-specific desensitization” (Duke University, priority 1989, dated 2003) come the findings set out here.

Where two headings read alike, the source gives them in different places. No end group written: not given here.

Experiment [1] has as its target T1, βAR kinase (Bos taurus, UniProt P21146).
T1 construct: βAR kinase was purified from bovine cerebral cortex; from tissue; host or cells: bovine cerebral cortex
T1 sequence (P21146 1-689): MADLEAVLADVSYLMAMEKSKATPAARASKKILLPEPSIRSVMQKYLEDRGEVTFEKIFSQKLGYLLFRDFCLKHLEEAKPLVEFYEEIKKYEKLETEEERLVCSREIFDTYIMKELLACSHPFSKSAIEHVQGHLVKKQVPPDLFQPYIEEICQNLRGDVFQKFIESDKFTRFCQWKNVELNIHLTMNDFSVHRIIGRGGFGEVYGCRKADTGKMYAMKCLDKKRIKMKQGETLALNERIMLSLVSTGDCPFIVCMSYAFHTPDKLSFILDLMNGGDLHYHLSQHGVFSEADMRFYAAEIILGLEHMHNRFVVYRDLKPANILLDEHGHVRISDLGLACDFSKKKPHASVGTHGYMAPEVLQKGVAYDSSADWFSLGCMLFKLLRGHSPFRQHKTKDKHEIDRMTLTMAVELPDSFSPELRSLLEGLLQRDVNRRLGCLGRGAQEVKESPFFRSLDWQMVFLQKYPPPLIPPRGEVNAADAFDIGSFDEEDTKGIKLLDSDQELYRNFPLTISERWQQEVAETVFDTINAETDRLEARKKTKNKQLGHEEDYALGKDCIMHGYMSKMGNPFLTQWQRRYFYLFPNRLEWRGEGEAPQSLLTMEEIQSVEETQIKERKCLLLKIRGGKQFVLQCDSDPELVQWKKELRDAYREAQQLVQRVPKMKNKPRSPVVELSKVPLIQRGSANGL
Description: Inhibition of β2AR phosphorylation by βAR kinase by synthetic peptides (Example III). Format: biochemical, bovine. Particulars: β2AR as substrate; read-out: IC50 (μM), first intracellular loop peptides as inhibitors of βAR kinase. The method, then: FIG. 13. Inhibition of β2AR phosphorylation by synthetic peptides. Reconstituted β2AR (˜0.4 pmol) was incubated for 30 min at 30° with purified βAR kinase (˜30 ng) in the presence of 50 mM Tris-HCl, pH 7.5, 2 mM EDTA, 10 mM NaCl, 5 mM MgCl2, 5 mM sodium phosphate, 50 μM (−)-isoproterenol and 0.10 mM [γ^32P]ATP (2.0 cpm/fmol). Synthetic β2AR peptides were varied from 0 to 1 mM and included CI (Δ), CII (▴), CIII-2 (◯) and CT-1 (●). Reactions were stopped by the addition of […]. ^32P-labeled receptor was determined by cutting and counting the dried gel following autoradiography.
The β2-adrenergic receptor from hamster lung was purified to apparent homogeneity by sequential affinity and high performance liquid chromatography as described (Benovic et al (1984) Biochemistry 23:4510-4518). The purified receptor was reinserted into phosphatidylcholine vesicles as previously described (Cerione et al (1983) Nature 306:562-566). The protein-lipid pellets were resuspended in 20 mM Tris-HCl, pH 7.2, 2 mM EDTA and used as a substrate for the βAR kinase.
βAR kinase was purified from bovine cerebral cortex by modification of a previously described procedure (Benovic et al (1987) J. Biol. Chem. 262:9026-9032). Briefly, 250 g of bovine cortex was homogenized and the resulting high speed supernatant fraction was precipitated with 13-26% ammonium sulfate. This material was initially chromatographed on an Ultrogel AcA34 column equilibrated with 5 mM Tris-HCl, pH 7.5, 2 mM EDTA, 5 μg/ml leupeptin, 5 μg/ml pepstatin, 15 μg/ml benzamidine, 0.2 mM phenylmethyl sulfonyl fluoride (buffer A). The peak activity was diluted 1:1 with buffer A containing 0.02% triton X-100 and applied to a DEAE Sephacel column. Elution was accomplished with a 0-80 mM NaCl gradient in buffer A containing triton X-100. The peak activity was then applied directly to a CM Fractogel column and eluted with a 0-100 mM NaCl gradient in buffer A containing triton X-100. The purified kinase was stored at 4° C.
The inhibition of substrate phosphorylation by βAR kinase in the presence of synthetic peptides was assayed as follows. Reconstituted βAR (0.2-1 pmol/inclubation) was incubated with βAR kinase (10-30 ng) in a buffer containing 50 mM Tris-HCl, pH 7.5, 2 mM EDTA, 10 mM NaCl, 5 mM MgCl2, 5 mM sodium phosphate, 50 μM (−)-isoproterenol, 0.10 mM [γ-^32P]ATP (1-3 cpm/fmol) at 30° C. for 30 min. Synthetic β2AR peptides were varied in concentration from 0 to 2 mM. Reactions were quenched by the addition of SDS sample buffer followed by gel electrophoresis. In some experiments urea treated rod outer segments (Wilden et al (1982) Biochemistry 21:3014-3022; Shichi et al (1978) J. Biol. Chem. 253:7040-7046) were used as the substrate for βAR kinase. To further define the specificity of the peptide inhibition, phosvitin, casein (see Example I) and the synthetic peptides CT-2 and CT-3 were used as substrates for βAR kinase.
SDS polyacrylamide gel electrophoresis was performed by the method of Laemmli (Nature (1970) 227:[…]) using 10 or 15% homogeneous slab gels. SDS sample buffer contained 8% SDS, 10% glycerol, 5% β-mercaptoethanol, 25 mM Tris-HCl, pH 6.5 and 0.003% bromphenol blue. SDS urea polyacrylamide gel electrophoresis was carried out using 6.5 M urea, 0.1% SDS, 100 mM H3PO4, pH 6.8 with Tris-HCl and 9% acrylamide (Swank et al (1971) Anal. Biochem. 39:462). SDS urea sample buffer contained 1% SDS, 8M urea, 10 mM H3PO4, pH 6.8 with Tris-HCl, 1% β-mercaptoethanol and 0.003% bromphenol blue.

For experiment [2], the system named is β2ARs in intact A431 cells. As to the kind of experiment: Desensitization of β2ARs in intact A431 cells. The class given is cell-based, human. The settings on record: data not shown.
The subject of experiment [3] is β2ARs in permeabilized A431 cells. As to the kind of experiment: Desensitization of β2ARs in permeabilized A431 cells. The class given is cell-based, human. The method, then: Permeabilization of cells was accomplished as follows. Human epidermoid carcinoma A431 cells were grown to about 95% confluence in Dulbecco's modified Eagle's medium supplemented with 10% fetal calf serum. Cells were harvested with collagenase, washed three times with calcium-free phosphate-buffered saline (PBS), then washed twice in 150 mM potassium glutamate/10 mM Hepes/5 mM EGTA/7 mM MgCl2, pH 7.1 (KG buffer), and finally resuspended in KG buffer supplemented with 5 mM glucose and 2 mM ATP (KG-A buffer) at a density of 4×10^7 cells per ml.
At 4×10^7 cells per ml, about 0.015% digitonin was necessary to achieve permeabilization of >95% cells as assessed by staining with trypan blue. In all experiments, digitonin was added stepwise until >95% of the cells were trypan blue positive.

Experiment [4] concerns the target T1, βAR kinase. As to the kind of experiment: Phosphorylation of purified reconstituted β2ARs by purified βAR kinase (Example II). The class given is biochemical, bovine. The settings on record: 100 μM. The protocol: FIG. 7. […] (Inset) Relevant section of a representative autoradiogram. Data are means±SEM of three independent experiments. […] Desensitization was measured as the percent loss of stimulation by 10 μM (−)-isoproterenol of adenylyl cyclase activity in membranes. […] Data are means±SEM of four independent experiments.
Purified β2ARs were inserted into phosphatidylcholine vesicles by chromatography on Extracti-gel, followed by polyethylene glycol treatment and centrifugation at 280,000×g for 90 min (Cerione et al (1984) Biochemistry 23:4519-4525). Phosphorylation of the reconstituted receptors by purified βAR kinase was done in the presence of 50 μM (−)-isoproterenol as described (Benovic et al (1987) J. Biol. Chem. 262:9026-9032). Subsequently, the samples were subjected to sodium dodecyl sulfate polyacrylamide gel electrophoresis on 10% gels (Laemmli (1970) Nature 227:680-685). The phosphorylated β2ARs were visualized by autoradiography, and the corresponding bands were cut out and their content of ^32P quantified.

Experiment [5] relates to β2ARs in permeabilized A431 cells. Description: Phosphorylation of β2ARs in permeabilized A431 cells. Format: cell-based, human. Particulars: 1 μM isoproterenol, absence of heparin. The protocol: FIG. 8. Phosphorylation of β2ARs in permeabilized A431 cells. […] FIG. 8A: Autoradiogram obtained after a 10-day exposure at −70° C. FIG. 8B: Transverse densitometric scan of the autoradiogram.
β2ARs in permeabilized A431 cells were phosphorylated as follows. Permeabilized cells (4×10^8) in 10 ml of KG-A buffer containing 1 mCi (1 Ci=37 GBq) of [γ-^32P]ATP were incubated with or without 1 μM (−)-isoproterenol (and other compounds as indicated) for 10 min at 37° C. All buffers used in these experiments contained 5 μg of soybean tryspin inhibitor, 5 μg of leupeptin, and 10 μg of benzamidine per ml and 0.1 mM phenylmethylsulfonyl fluoride. […] After three identical washing steps, crude membranes were prepared as above.
Aliquots of the samples (≈60 fmol of β2ARs) were desalted over Sephadex G-50 and incubated for 2 hr at 20° C. with 200 pM of the ligand with or without 10 μM alprenolol. Free ligand was removed by desalting as above, and the samples were irradiated with UV light for 3 min. The samples were loaded on the same gel as the samples described above.

For experiment [6], the system named is adenylyl cyclase in membranes of A431 cells. Description: cells. The settings on record: Homo sapiens. The protocol:
FIG. 5. […] Cells were incubated for 10 min with (desensitized) (●) or without (control) (◯) 1 μM (−)-isoproterenol as detailed. Adenylyl cyclase activities of membranes prepared from the cells were measured in the presence of various concentrations of (−)-isoproterenol and were expressed as percent of the activity in the presence of 10 mM NaF. […] Data are means±SEM of three independent experiments.
Desensitization of β2ARs in A431 cells was effected as follows. Permeabilized cells in KG-A buffer (or, for controls, intact cells in PBS) were incubated with or without 1 μM (−)-isoproterenol for 10 min or the indicated times (4×10^7 cells per ml). The incubation was terminated by addition of 10 vol of ice-cold KG buffer (or PBS, respectively), followed by centrifugation at 1000×g for 5 min. After three identical washes, cells were disrupted with a Polytron homogenizer in 5 mM Tris-HCl, pH 7.4/2 mM EDTA. Crude membranes were prepared by spinning the supernatant after low-speed centrifugation (1000×g for 5 min) at 40,000×g for 20 min.
Adenylyl cyclase activity in the membranes was determined as described by Salomon et al (Anal. Biochem. (1974) 58:541-548). The free Mg^2+ concentration in the assay was 4 mM.
Concentration-response curves were analyzed by nonlinear curve-fitting to the Hill equation as described (Lohse et al (1986) Mol. Pharmacol. 30:403-409). Adenylyl cyclase activity was expressed as the percentage of the activity in the presence of 10 mM NaF. Since NaF stimulates adenylyl cyclase via the stimulatory guanine nucleotide binding protein, Gs, this normalizes for effects that occur at the level of Gs or the cyclase (i.e., which effects represent heterologous desensitization). Desensitization was assessed by measuring the loss of maximal stimulation by isoproterenol [determined with 10 μM (−)-isoproterenol] and was calculated as [1−stimulation (desensitized)/stimulation (control)]×100. For example, a decrease from 60% to 40% of NaF-stimulated activity corresponds to a desensitization of [1−(40/60)]×100=33%.

Broadly, the IC50 is the concentration needed to halve the response being measured. Broadly, the inhibition is the drop in the measured response relative to a control, in per cent. Low values mean a response near the control, high ones a response far below the control. A word on the EC50: it is the concentration needed to bring the measured effect to its halfway point.

Take AIAKFERLQTVTNYF [β2AR-(57-71)]: the IC50 in experiment [1] came to 62 µM. Besides, the “effect on desensitization in intact cells” value in experiment [2] is given as “Neither compound affected desensitization”. Further, the “Inhibition of Desensitization, %” value in experiment [3] (100 μM) stood at 52 ± 12%. The “effect on time course of desensitization” value in experiment [3] (100 μM peptide, 1 μM (−)-isoproterenol) is “markedly slowed the rate of desensitization”. Besides, in experiment [4], at 100 µM the inhibition was 80 ± 13%.
Regarding `CC(C)NC[C@H](O)c1ccc(O)c(O)c1` [isoproterenol, (−)-isoproterenol], the “increase in the phosphorylation of the β2ARs” value in experiment [5] turned out to be 5 fold. For the same compound, the Emax in experiment [6] (A-431, 10 min, read-out: desensitization (loss of maximal stimulation), 1 μM isoproterenol 10 min 37° C., both intact and permeabilized cells) was ~30%; in experiment [6] (A-431, read-out: Emax, maximal stimulation over basal in percent of activity with 10 mM NaF, control intact cells) it was 56%; in experiment [6] (A-431, read-out: Emax, maximal stimulation over basal in percent of activity with 10 mM NaF, control permeabilized cells), 62%; in experiment [6] (A-431, read-out: Emax, maximal stimulation over basal in percent of activity with 10 mM NaF, desensitized intact cells), 40%; in experiment [6] (A-431, read-out: Emax, maximal stimulation over basal in percent of activity with 10 mM NaF, desensitized permeabilized cells), 43%. The EC50 in experiment [6] (A-431, read-out: EC50, adenylyl cyclase stimulation, control intact cells) stood at 200 nM; in experiment [6] (A-431, read-out: EC50, adenylyl cyclase stimulation, control permeabilized cells), 130 nM; in experiment [6] (A-431, read-out: EC50, adenylyl cyclase stimulation, desensitized intact cells), 300 nM; in experiment [6] (A-431, read-out: EC50, adenylyl cyclase stimulation, desensitized permeabilized cells), 190 nM.
